Data reported in article PMC7076571 (Neoplasia (New York, N.Y.), 2020).

Columns and labels:
Type in all cases: biochemical
[1] = molecular target: RBX1 (Homo sapiens, UniProt P62877+Q13616, Q13616:L421E/Q13616:V451E/Q13616:V452K/Q13616:Y455K); assay: in vitro CUL1 neddylation assay
[2] = molecular target: T1, CUL5 (Homo sapiens, UniProt Q93034+Q9UBF6, Q93034:L407E/Q93034:L439K/Q93034:V440K); assay: in vitro CUL5 neddylation assay
T1 sequence (Q93034 401-780 L407E/L439K/V440K): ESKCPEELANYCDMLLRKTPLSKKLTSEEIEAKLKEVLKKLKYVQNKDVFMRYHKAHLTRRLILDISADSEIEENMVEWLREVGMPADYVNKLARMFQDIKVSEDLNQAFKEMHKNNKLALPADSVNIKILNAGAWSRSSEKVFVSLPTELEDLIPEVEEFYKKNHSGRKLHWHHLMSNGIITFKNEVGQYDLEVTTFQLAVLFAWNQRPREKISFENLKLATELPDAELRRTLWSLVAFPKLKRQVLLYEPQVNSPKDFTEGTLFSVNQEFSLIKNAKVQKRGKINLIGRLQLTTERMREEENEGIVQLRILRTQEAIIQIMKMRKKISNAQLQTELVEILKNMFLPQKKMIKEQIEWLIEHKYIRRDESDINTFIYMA
T1 sequence (Q9UBF6 2-113): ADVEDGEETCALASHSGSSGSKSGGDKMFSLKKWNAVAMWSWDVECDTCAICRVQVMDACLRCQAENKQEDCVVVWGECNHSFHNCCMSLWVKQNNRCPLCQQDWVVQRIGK

[3] = molecular target: T2, SAG (Homo sapiens, UniProt Q93034+Q9UBF6, Q93034:L407E/Q93034:L439K/Q93034:V440K); assay: in vitro CUL5 neddylation assay
T2 sequence (Q9UBF6 2-113): T1 sequence (Q9UBF6 2-113)
T2 sequence (Q93034 401-780 L407E/L439K/V440K): T1 sequence (Q93034 401-780 L407E/L439K/V440K)

Chain of RBX1 (Q13616 411-776 L421E/V451E/V452K/Y455K): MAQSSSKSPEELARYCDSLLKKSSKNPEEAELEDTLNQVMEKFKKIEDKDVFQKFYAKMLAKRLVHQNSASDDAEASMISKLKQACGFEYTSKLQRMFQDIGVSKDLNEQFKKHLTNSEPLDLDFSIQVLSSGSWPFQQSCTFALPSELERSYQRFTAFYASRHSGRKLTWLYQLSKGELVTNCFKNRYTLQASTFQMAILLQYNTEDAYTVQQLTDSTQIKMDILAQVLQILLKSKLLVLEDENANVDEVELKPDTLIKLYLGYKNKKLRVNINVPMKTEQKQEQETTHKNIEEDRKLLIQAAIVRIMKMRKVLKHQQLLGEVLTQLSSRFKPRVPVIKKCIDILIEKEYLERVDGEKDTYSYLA
Chain of RBX1 (P62877 whole entry): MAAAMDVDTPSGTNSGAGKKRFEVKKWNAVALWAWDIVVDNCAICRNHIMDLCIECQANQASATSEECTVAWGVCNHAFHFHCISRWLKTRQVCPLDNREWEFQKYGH

`Cc1cc2c(C(C)C)c(O)c(O)c(C=O)c2c(O)c1-c1c(C)cc2c(C(C)C)c(O)c(O)c(C=O)c2c1O` [gossypol] was tested, and the IC50 [1] was 3.4 µM, the IC50 [2] was 4.25 µM and the IC50 [3] was 4.25 µM.
